We go through five molecules from patent publication US6706747B2, “Conformationally rigid bicyclic and adamantane derivatives useful as α2-adrenergic blocking agents” (Allergan, Inc., priority 1994, dated 2004).

In one assay the target is α1. As to the kind of experiment: Radioligand binding, [3H]prazosin, human cerebral cortex (HCC) membranes. The conditions noted are these: 22° C., 30 minutes. As for the experimental part: (§1) Tissue preparation: Membrane suspensions were prepared from human cerebral cortex (HCC) obtained from the UCI Organ and Tissue Bank and rat kidney cortex (RKC). Briefly, tissues (1 g) were homogenized in 25 ml of iced-cold 5 mM tris, pH 7.4 with a Polytron homogenizer for 30 secs at setting# 7, and centrifuged for. 10-12 minutes at 300×g at 4° C. The supernatant was filtered: through 2 layers of gauze and diluted 1:2 with 50 mM Tris-HCI buffer, pH 7.4, then centrifuged at 49,000×g for 20 minutes. The pellet fraction was washed 3 times (resuspended in Tris-HCl buffer and centrifuged for 20 minutes at 49,000×g). The pellet was then stored at −80° C. until the binding assay.
Binding studies: The radioligands [^3H]rauwolscine (specific activity 80 Ci/mmol) and [^3H]prazosin (specific activity 76 Ci/mmol) were obtained from New England Nuclear, Boston, Mass. Frozen membrane pellet was resuspended in 25 mM glycine/glycine, pH 7.4 and incubated with radioligand under the following conditions: CHO—C10, CHO—RNG, HT-29-[^3H]rauwolscine, 22° C., 30 minutes; RKC-[^3H]rauwolscine, 0° C., 120 minutes; and, HCC-[^3H]prazosin, 22° C., 30 minutes in a final volume of 500 μl. At the end of the incubation period, the samples were filtered through glass fiber filters (Whatman GF/B) in a 96 well cell harvester and rapidly washed four times with 4 ml of ice-cold 50 mM, Tris-HCl buffer. The filters were then oven dried and transferred to scintillation vials containing 5 ml of Beckman's Ready Protein® scintillation cocktail for counting. […] Protein concentrations were determined with a protein assay kit from Bio Rad. Binding isotherms, equilibrium dissociation and affinity constants were analyzed and determined by the non-linear least squares curve fitting programs AccuFit Competition/Saturation by Beckman.
Frozen membrane pellet was resuspended either 50 mM tris, 2 mM EGTA, 1 mM MgCl2, pH7.5 (RbKC, RbICB-[^3H]brimonidine); 50 mM tris, 0.5 mM EDTA, 5 mM NaCl, pH 7.7 (RbICB-[^3H]rauwolscine); 25 mM glycine/glycine, pH 7.4 (RtKC, CHO—C10, CH—RNG, HT-29, HCC) or 50 mM tris, 0.1 mM MnCl2, pH7.7 (RtCC). Membrane protein homogenate (75-200 μg) was incubated with radioligand under the following conditions: RbKC and RbICB-[^3H]rauwolscine, 22° C., 45 minutes; RtCC and RbICB-[^3H]brimondine, 22° C., 90 minutes; CHO—C10, CHO—RNG and HT-29-[^3H]rauwolscine, 22° C., 30 minutes; HCC—[^3H]prazosin, 22° C., 30 minutes; and, in a final volume of 250 or 500 μl. At the end of the incubation period, the samples were filtered through glass fiber filters (Whatman GF/B) in a 24 or 96 well cell harvester and rapidly washed four times with 4 mls of iced-cold 50 mM Tris-HCl buffer. The filters were then oven dried and transferred to scintillation vials containing 10 mls of, Beckman's Ready Protein® scintillation cocktail for counting. […] Protein concentrations were determined with a protein assay kit from Bio Rad. Binding isotherms, equilibrium dissociation and affinity constants were analyzed and determined by the non-linear least squares curve fitting programs EBDA (BioSoft) or AccuFit Competition/Saturation by Beckman.
The radioligands [^3H]rauwolscine (specific activity 80 Ci/mmol) and [^3H]prazosin (specific activity 76 Ci/mmol) were obtained from New England Nuclear, Boston, Mass. Frozen membrane pellet was resuspended in 25 mM glycine/glycine, pH 7.4 and incubated with radioligand under the following conditions: CHO—C10, CHO—RNG-[^3H]rauwolscine, 22° C., 30 minutes; and, HCC—[^3H]prazosin, 22° C., 30 minutes in a final volume of 500 ul.

The next assay concerns the target T1, Rat Kidney Cortex (α2AB) (Rattus norvegicus, UniProt P19328).
T1 construct: Membrane suspensions were prepared from human cerebral cortex (HCC) obtained from the UCI Organ and Tissue Bank and rat kidney cortex (RKC); from tissue; host or cells: rat kidney cortex
T1 sequence (P19328 1-453): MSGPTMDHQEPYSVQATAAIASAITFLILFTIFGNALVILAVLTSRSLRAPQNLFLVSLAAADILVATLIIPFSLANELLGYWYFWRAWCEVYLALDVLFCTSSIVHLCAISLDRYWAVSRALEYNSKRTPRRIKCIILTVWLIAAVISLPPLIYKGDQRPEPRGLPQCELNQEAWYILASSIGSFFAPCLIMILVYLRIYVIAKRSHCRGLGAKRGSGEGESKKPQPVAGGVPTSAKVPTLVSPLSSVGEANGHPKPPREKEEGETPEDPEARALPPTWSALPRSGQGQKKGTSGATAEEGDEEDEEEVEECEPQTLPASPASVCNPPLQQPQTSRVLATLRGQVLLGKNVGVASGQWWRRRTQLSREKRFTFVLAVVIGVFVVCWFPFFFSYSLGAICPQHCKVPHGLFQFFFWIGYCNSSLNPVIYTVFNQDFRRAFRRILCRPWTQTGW
The experiment in a line: Radioligand binding, [3H]rauwolscine, rat kidney cortex (RKC) membranes. As to conditions: values marked †: rat kidney cortex, 0° C., 120 minutes, read-out: Ki (nM) α2B (RKC)†. The procedure: as §1
Binding studies: The radioligands [^3H]rauwolscine (specific activity 80 Ci/mmol) and [^3H]prazosin (specific activity 76 Ci/mmol) were obtained from New England Nuclear, Boston, Mass. Frozen membrane pellet was resuspended in 25 mM glycine/glycine, pH 7.4 and incubated with radioligand under the following conditions: CHO—C10, CHO—RNG, HT-29-[^3H]rauwolscine, 22° C., 30 minutes; RKC-[^3H]rauwolscine, 0° C., 120 minutes; and, HCC-[^3H]prazosin, 22° C., 30 minutes in a final volume of 500 μl. At the end of the incubation period, the samples were filtered through glass fiber filters (Whatman GF/B) in a 96 well cell harvester and rapidly washed four times with 4 ml of ice-cold 50 mM, Tris-HCl buffer. The filters were then oven dried and transferred to scintillation vials containing 5 ml of Beckman's Ready Protein® scintillation cocktail for counting. Specific binding defined by 10 μM phentolamine for competition studies were as follows: 0.3 nM [^3H]rauwolscine—CHO—C10 99%; 0.4 nM[^3H]rauwolscine —CHO—RNG 99%; 0.7;nM [^3H]rauwolscine—HT-29 90%; 1 nm [^3]rauwolscine—RKC 92%, and 0.3 nM [^3H]prazosin—HCC 87%. Protein concentrations were determined with a protein assay kit from Bio Rad. Binding isotherms, equilibrium dissociation and affinity constants were analyzed and determined by the non-linear least squares curve fitting programs AccuFit Competition/Saturation by Beckman.

Where only a bound is given, the exact number is not on record here.

Turning to `CCCCNC1=NCCO1`, the Ki on α1 is > 100000 nM; on Rat Kidney Cortex (α2AB), 317 nM.
Turning to `CC(C)C1C2CCC(C2)C1NC1=NCCO1` (stereo not shown), the inhibitory constant (Ki) was > 10000 nM at α1 and 58 nM on Rat Kidney Cortex (α2AB).
On to `CCCCC1C2CCC(C2)C1NC1=NCCO1` (stereo not shown), for which the Ki turned out to be 5820 nM on α1 and 59 nM on Rat Kidney Cortex (α2AB).
The corresponding values for `CCCCC1C2CCC(C2)C1NC1=NCCS1` (stereo not shown) are 42000 nM and 167 nM.
In the same order, the values of `C1CCC(C2C3CCC(C3)C2NC2=NCCN2)CC1` (stereo not shown) are 17200 nM and 5100 nM.
